Laboratory results taken from ChEMBL document CHEMBL1156725, “8-Biarylchromen-4-one inhibitors of the DNA-dependent protein kinase (DNA-PK)” (Bioorg Med Chem Lett, 2008).

Molecular target: DNA-dependent protein kinase catalytic subunit (Homo sapiens, UniProt P78527)
Assay: Inhibition of DNA-dependent protein kinase

DNA-dependent protein kinase catalytic subunit, sequence (P78527 whole entry): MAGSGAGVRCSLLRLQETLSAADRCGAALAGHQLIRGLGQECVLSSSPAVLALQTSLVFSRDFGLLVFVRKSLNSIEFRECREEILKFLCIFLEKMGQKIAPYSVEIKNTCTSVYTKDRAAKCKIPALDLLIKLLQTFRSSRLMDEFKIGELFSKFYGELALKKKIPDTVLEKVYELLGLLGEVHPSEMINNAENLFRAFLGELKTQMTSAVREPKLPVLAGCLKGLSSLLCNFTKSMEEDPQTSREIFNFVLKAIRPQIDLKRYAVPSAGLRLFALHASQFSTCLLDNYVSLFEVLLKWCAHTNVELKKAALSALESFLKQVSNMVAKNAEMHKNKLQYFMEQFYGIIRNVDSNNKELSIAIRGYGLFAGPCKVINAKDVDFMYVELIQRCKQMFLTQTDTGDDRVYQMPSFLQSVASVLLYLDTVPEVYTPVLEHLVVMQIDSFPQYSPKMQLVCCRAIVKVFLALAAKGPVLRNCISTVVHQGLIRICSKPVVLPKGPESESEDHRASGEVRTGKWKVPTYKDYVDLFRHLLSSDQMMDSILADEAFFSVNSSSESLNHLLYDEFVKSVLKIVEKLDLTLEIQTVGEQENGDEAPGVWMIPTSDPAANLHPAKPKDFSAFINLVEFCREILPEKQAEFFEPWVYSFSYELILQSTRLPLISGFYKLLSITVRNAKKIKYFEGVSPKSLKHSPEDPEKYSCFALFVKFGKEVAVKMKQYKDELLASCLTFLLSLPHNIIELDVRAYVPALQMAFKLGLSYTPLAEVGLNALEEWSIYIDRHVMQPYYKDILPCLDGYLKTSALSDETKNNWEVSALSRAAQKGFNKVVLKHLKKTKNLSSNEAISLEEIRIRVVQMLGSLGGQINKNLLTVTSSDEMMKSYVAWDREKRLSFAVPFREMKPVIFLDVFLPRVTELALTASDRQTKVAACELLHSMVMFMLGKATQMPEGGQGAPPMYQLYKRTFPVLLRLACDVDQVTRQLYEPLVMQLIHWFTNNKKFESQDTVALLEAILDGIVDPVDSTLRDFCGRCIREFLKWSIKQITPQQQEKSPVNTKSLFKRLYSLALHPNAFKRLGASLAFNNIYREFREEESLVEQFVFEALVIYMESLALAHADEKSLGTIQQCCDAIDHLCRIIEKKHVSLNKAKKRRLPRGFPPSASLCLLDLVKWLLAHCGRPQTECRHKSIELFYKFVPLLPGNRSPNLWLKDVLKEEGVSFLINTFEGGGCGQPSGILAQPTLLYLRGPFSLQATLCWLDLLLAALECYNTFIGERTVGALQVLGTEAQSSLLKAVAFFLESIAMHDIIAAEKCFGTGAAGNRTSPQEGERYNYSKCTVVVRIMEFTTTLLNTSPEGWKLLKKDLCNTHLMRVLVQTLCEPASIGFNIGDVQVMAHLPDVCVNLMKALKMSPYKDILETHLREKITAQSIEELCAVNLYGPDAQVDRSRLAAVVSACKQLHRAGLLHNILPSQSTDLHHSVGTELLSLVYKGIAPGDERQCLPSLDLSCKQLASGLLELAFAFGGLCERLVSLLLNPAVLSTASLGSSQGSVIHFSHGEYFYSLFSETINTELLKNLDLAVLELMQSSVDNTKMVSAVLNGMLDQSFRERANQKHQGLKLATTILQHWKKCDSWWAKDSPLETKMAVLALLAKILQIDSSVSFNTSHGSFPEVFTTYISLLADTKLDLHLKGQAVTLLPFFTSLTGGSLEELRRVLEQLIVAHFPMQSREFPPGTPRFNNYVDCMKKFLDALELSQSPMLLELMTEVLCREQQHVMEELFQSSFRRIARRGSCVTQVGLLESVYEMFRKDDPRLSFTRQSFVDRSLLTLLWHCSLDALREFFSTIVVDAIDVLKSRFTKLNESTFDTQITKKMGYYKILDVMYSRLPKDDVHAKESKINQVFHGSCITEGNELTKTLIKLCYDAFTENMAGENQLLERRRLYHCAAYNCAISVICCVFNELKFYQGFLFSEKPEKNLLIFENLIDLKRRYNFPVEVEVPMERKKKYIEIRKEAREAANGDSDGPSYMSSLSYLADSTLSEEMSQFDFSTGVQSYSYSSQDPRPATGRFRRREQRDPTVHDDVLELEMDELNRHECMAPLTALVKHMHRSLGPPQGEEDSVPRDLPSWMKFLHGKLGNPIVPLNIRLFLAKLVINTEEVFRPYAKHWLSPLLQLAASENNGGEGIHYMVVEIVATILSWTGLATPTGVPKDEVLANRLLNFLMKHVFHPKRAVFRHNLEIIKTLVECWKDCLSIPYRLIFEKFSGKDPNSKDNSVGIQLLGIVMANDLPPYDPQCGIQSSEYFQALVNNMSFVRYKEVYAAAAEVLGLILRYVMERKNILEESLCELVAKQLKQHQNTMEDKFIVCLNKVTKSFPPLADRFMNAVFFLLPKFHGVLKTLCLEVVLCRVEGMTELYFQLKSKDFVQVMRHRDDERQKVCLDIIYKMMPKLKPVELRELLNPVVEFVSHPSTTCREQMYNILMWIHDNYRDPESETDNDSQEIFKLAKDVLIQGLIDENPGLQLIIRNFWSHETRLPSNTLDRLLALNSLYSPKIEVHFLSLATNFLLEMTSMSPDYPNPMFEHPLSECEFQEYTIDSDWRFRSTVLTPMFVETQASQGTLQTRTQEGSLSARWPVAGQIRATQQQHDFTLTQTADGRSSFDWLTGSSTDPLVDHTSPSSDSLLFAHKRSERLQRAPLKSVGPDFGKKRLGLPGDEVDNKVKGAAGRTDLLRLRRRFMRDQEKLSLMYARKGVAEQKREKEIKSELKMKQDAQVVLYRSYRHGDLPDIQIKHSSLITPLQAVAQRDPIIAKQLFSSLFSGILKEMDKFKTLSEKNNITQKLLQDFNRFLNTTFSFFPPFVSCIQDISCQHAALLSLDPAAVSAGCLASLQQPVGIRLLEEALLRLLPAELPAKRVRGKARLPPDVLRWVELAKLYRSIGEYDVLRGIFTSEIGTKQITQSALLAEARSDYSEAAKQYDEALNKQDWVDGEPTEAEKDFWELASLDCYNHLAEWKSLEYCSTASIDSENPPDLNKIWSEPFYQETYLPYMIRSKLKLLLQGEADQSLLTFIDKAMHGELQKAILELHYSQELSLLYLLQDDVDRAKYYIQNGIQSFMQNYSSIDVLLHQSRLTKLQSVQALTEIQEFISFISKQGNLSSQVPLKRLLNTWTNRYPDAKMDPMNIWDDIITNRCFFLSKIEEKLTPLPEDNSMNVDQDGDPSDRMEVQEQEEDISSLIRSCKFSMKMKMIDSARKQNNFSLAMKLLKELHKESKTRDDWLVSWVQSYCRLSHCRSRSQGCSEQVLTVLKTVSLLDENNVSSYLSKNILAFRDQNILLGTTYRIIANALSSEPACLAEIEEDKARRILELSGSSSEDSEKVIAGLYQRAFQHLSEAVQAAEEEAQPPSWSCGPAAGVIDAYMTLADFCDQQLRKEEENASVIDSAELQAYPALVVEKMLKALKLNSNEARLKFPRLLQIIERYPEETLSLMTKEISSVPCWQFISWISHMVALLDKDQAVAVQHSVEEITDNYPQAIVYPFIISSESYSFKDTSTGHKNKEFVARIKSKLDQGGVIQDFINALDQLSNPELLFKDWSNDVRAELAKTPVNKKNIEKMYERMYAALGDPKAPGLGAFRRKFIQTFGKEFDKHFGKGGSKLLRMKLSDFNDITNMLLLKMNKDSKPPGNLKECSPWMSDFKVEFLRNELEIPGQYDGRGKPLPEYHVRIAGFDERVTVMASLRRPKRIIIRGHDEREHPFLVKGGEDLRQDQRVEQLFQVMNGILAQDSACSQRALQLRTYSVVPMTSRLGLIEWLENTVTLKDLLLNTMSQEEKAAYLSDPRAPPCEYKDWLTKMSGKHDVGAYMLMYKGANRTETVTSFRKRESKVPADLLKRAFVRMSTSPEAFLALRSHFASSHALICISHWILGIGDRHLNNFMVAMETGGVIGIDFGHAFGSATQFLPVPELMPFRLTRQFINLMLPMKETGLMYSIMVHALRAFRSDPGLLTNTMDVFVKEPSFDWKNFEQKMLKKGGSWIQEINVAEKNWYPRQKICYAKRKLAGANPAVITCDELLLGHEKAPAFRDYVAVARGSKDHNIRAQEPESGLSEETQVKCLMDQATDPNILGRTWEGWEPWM

IC50 | SMILES
20 nM | O=c1cc(N2CCOCC2)oc2c(-c3cccc(-c4ccsc4)c3)cccc12
830 nM | COc1ccc(-c2cccc(-c3cccc4c(=O)cc(N5CCOCC5)oc34)c2)cc1
360 nM | Cc1ccsc1-c1cccc(-c2cccc3c(=O)cc(N4CCOCC4)oc23)c1
3050 nM | O=c1cc(N2CCOCC2)oc2c(-c3cccc(-c4ncccn4)c3)cccc12
1600 nM | O=c1cc(N2CCOCC2)oc2c(-c3ccccc3)cccc12 [LY-294002]
12 nM | O=c1cc(N2CCOCC2)oc2c(-c3cccc4c3sc3ccccc34)cccc12
1820 nM | O=c1cc(N2CCOCC2)oc2c(-c3cccc(-c4cc[nH]c4)c3)cccc12
260 nM | COC(=O)c1cc(N)cc(-c2cccc(-c3cccc4c(=O)cc(N5CCOCC5)oc34)c2)c1
640 nM | Cc1cscc1-c1cccc(-c2cccc3c(=O)cc(N4CCOCC4)oc23)c1
1230 nM | Cn1cncc1-c1cccc(-c2cccc3c(=O)cc(N4CCOCC4)oc23)c1
90 nM | O=c1cc(N2CCOCC2)oc2c(-c3cc(-c4ccccc4)cs3)cccc12
1100 nM | O=Cc1ccc(-c2cccc(-c3cccc4c(=O)cc(N5CCOCC5)oc34)c2)cc1
1070 nM | Cc1ccc(-c2cccc(-c3cccc4c(=O)cc(N5CCOCC5)oc34)c2)s1
1570 nM | O=c1cc(N2CCOCC2)oc2c(-c3cccc(-c4cncnc4)c3)cccc12
510 nM | O=c1cc(N2CCOCC2)oc2c(-c3cccc(-c4ccncc4)c3)cccc12
1900 nM | NCc1ccc(-c2cccc(-c3cccc4c(=O)cc(N5CCOCC5)oc34)c2)cc1
1480 nM | N#Cc1ccc(-c2cccc(-c3cccc4c(=O)cc(N5CCOCC5)oc34)c2)cc1
510 nM | Nc1cc(C(=O)O)cc(-c2cccc(-c3cccc4c(=O)cc(N5CCOCC5)oc34)c2)c1
1000 nM | O=c1cc(N2CCOCC2)oc2c(-c3cccc(-c4ccc(CO)cc4)c3)cccc12
380 nM | O=c1cc(N2CCOCC2)oc2c(-c3cccc(-c4ccco4)c3)cccc12
490 nM | O=c1cc(N2CCOCC2)oc2c(-c3cccc(-c4nccs4)c3)cccc12
140 nM | O=c1cc(N2CCOCC2)oc2c(-c3cccc(-c4ccc(O)cc4)c3)cccc12
400 nM | O=c1cc(N2CCOCC2)oc2c(-c3ccc(-c4ccccc4)s3)cccc12
370 nM | O=c1cc(N2CCOCC2)oc2c(-c3ncc(-c4ccccc4)s3)cccc12
180 nM | O=c1cc(N2CCOCC2)oc2c(-c3cccc(-c4ccccc4)c3)cccc12
1130 nM | Cc1cc(-c2cccc(-c3cccc4c(=O)cc(N5CCOCC5)oc34)c2)cs1
270 nM | O=c1cc(N2CCOCC2)oc2c(-c3cccc(-c4ccoc4)c3)cccc12
3010 nM | Cn1ccnc1-c1cccc(-c2cccc3c(=O)cc(N4CCOCC4)oc23)c1
18 nM | O=c1cc(N2CCOCC2)oc2c(-c3cccc(-c4cccs4)c3)cccc12
880 nM | O=c1cc(N2CCOCC2)oc2c(-c3cccc(-c4ccccn4)c3)cccc12
